# Experimental data taken from patent US20220031697A1, “Dose and regimen for an hdm2-p53 interaction inhibitor in hematological tumors” (Novartis AG, priority 2017, published 2022).
# Like-named read-outs stand apart in the source and are kept apart here.
# Legend:
# [1] = test system: advanced TP53 wild-type (WT) leukemias; format: in vivo, human
# [2] = Clinical PK; format: in vivo, human
# Procedure: Pharmacokinetic data have been evaluated throughout the course of the clinical study. […] Furthermore, an integrated analysis of all available HDM201 concentrations was conducted using a population approach. The PK of HDM201 was best described by a 1-compartment PK model with a delayed zero- and first-order absorption process, and a linear clearance. Body weight was identified as a statistically significant covariate on apparent central volume of distribution (Vc/F), in which Vc/F increased with increasing body weight.
# To further support the 45 mg for HDM201, compartmental PK modeling was used to estimate the individual average concentration during cycle 1 for patients with hematological tumors treated at 45 mg on regimen 2C (FIG. 2). For all patients with measured PK, the estimated average drug concentrations during cycle 1 were above the most conservative average tumor stasis concentration of about 41 ng/mL per cycle determined from PKPD modeling of preclinical data (human SJSA-1 xenograft rat model).
# [3] = Regimen 1A 250 mg, cut-off 15 Jan. 2018
# [4] = Regimen 1A 250 mg, n=10, cut-off 15 Jan. 2018
# [5] = Regimen 1B 120 mg, n=23, cut-off 15 Jan. 2018
# [6] = Regimen 2C 45 mg, n=25, cut-off 15 Jan. 2018
smiles,measurement,setting,value
"COc1ncc(-c2nc3c(n2C(C)C)[C@H](c2ccc(Cl)cc2)N(c2cc(Cl)cn(C)c2=O)C3=O)c(OC)n1 [HDM201, (S)-5-(5-Chloro-1-methyl-2-oxo-1,2-dihydro-pyridin-3-yl)-6-(4-chloro-phenyl)-2-(2,4-dimethoxy-pyrimidin-5-yl)-1-isopropyl-5,6-dihydro-1H-pyrrolo[3,4-d]imidazol-4-one]",Count recovery time from C1D1,"[1]; CR patient, 1A 250 mg",48 days
same,Duration of CR/CRi,"[1]; CR patient, 1A 250 mg",50 days
same,Time to CR/CRi,"[1]; CR patient, 1A 250 mg",7 weeks
same,Count recovery time from C1D1,"[1]; CR patient, 1A 400 mg",40 days
same,Duration of CR/CRi,"[1]; CR patient, 1A 400 mg",23 days
same,Time to CR/CRi,"[1]; CR patient, 1A 400 mg",6 weeks
same,Count recovery time from C1D1,"[1]; CR patient, 2C 45 mg",32 days
same,Duration of CR/CRi,"[1]; CR patient, 2C 45 mg",152 days
same,Time to CR/CRi,"[1]; CR patient, 2C 45 mg",5 weeks
same,Duration of CR/CRi,"[1]; CRi patient, 1B 150 mg",51 days
same,Time to CR/CRi,"[1]; CRi patient, 1B 150 mg",11 weeks
same,Duration of CR/CRi,[1]; [3],50 to 125 days
same,Time to CR/CRi,[1]; [3],24 to 50 days
same,CR (patients),[1]; [4],1
same,CRi (patients),[1]; [4],1
same,BOR: CR,[1]; Regimen 1A (n = 15),2 (13) n (%)
same,BOR: CRi,[1]; Regimen 1A (n = 15),0 (0) n (%)
same,ORR (CR + CRi + PR),[1]; Regimen 1A (n = 15),2 (13) n (%)
same,Duration of CR/CRi,"[1]; Regimen 1B 120 mg, DoR censored, cut-off 15 Jan. 2018",1 day (DoR
same,Time to CR/CRi,"[1]; Regimen 1B 120 mg, cut-off 15 Jan. 2018",30 days
same,CR (patients),[1]; [5],1
same,CRi (patients),[1]; [5],0
same,BOR: CR,[1]; Regimen 1B (n = 6),0 (0) n (%)
same,BOR: CRi,[1]; Regimen 1B (n = 6),1 (17) n (%)
same,ORR (CR + CRi + PR),[1]; Regimen 1B (n = 6),1 (17) n (%)
same,Clinical activity,"[1]; Regimen 2A (2 weeks on/2 week off), doses up to 30 mg",without evidence of clinically meaningful activity
same,BOR: CR,[1]; Regimen 2A (n = 7),0 (0) n (%)
same,BOR: CRi,[1]; Regimen 2A (n = 7),0 (0) n (%)
same,ORR (CR + CRi + PR),[1]; Regimen 2A (n = 7),0 (0) n (%)
same,Count recovery time of the patient with CR,[1]; Regimen 2C 45 mg,32 days
same,Overall response rate,"[1]; Regimen 2C 45 mg, 7 patients with post-baseline assessment",57.1%
same,Time to CR/CRi,"[1]; Regimen 2C 45 mg, cut-off 15 Jan. 2018",34 to 49 days
same,CR (patients),[1]; [6],2
same,CRi (patients),[1]; [6],4
same,Duration of CRi,"[1]; Regimen 2C 45 mg, one of three CRi patients",40 days
same,Duration of complete response,"[1]; Regimen 2C 45 mg, one patient",152 days
same,BOR: CR,[1]; Regimen 2C (n = 7),1 (14) n (%)
same,BOR: CRi,[1]; Regimen 2C (n = 7),3 (43) n (%)
same,ORR (CR + CRi + PR),[1]; Regimen 2C (n = 7),4 (57) n (%)
same,Best percentage change in blast percentage in bone marrow (BM) aspirate,"[1]; Regimen 2C, AML patients, FIG. 1",strong efficacy
same,BOR: CR,[1]; Total (N = 35),3 (9) n (%)
same,BOR: CRi,[1]; Total (N = 35),4 (11) n (%)
same,ORR (CR + CRi + PR),[1]; Total (N = 35),7 (20) n (%)
same,Estimated average drug concentration during cycle 1,"[2]; 45 mg regimen 2C, all patients with measured PK, compartmental PK modeling",> 41 ng/mL
same,Dose proportionality of PK (AUClast and Cmax),"[2]; over the dose range studied, preliminary assessment",approximately dose proportional
